Broadly, the IC50 is the concentration that gives 50% inhibition.

Experimental findings from patent publication US20230139171A1 (SITA Information Networking Computing UK Limited, priority 2019, published 2023) are described below.

Holding throughout (format): cell-based
The target of assay [1] is T1, human TLR9 (Homo sapiens, UniProt Q9NR96).
T1 construct: host or cells: HEK-Blue cells
T1 sequence (Q9NR96 26-1032): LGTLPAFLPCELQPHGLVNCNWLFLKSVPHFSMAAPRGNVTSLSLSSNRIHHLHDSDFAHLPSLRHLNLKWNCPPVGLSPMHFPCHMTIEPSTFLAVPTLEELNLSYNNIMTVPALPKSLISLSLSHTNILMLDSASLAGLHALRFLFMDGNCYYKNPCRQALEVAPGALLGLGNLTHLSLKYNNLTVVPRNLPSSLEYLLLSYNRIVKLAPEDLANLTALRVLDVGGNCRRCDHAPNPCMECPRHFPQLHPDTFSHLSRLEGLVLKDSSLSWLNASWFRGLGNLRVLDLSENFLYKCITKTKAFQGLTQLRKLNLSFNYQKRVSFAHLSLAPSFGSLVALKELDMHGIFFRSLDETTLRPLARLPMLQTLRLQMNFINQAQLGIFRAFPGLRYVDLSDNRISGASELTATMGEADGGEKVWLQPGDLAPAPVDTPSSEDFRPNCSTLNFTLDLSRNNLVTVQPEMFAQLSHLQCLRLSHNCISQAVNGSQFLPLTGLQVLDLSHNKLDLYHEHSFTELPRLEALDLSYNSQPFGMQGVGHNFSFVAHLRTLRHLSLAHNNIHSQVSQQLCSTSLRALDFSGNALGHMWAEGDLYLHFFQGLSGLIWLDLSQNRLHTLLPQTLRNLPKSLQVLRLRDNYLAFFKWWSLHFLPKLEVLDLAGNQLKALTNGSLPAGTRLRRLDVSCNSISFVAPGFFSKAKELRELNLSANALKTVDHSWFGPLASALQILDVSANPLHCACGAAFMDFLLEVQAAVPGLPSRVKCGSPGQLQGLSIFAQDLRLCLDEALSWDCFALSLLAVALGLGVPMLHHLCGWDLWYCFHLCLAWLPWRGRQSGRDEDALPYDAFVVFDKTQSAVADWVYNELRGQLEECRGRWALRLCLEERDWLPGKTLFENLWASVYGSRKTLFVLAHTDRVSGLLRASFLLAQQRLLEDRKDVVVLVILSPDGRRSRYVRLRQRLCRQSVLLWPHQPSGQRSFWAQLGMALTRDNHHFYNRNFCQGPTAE
Nature of the assay: TLR9 inhibition reporter assay (HEK-Blue cells, SEAP reporter, ODN2006 stimulation). The following applies: HEK-Blue cells overexpressing human TLR9, SEAP reporter, ODN2006 5 nM. A digest of the protocol: (§1)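 Dose–response from 0.05 nM to 50 μM was run in HEK-Blue human TLR7, TLR8 and TLR9 reporter cells. After 30 min at room temperature with compound, ligand was added (TLR7 gardiquimod 7.5 μM; TLR8 R848 15.9 μM; TLR9 ODN2006 5 nM) and SEAP measured next day, at 22 h.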

Assay [2] addresses T2, human TLR8 (Homo sapiens, UniProt Q9NR97).
T2 construct: host or cells: HEK-Blue cells
T2 sequence (Q9NR97 27-1041): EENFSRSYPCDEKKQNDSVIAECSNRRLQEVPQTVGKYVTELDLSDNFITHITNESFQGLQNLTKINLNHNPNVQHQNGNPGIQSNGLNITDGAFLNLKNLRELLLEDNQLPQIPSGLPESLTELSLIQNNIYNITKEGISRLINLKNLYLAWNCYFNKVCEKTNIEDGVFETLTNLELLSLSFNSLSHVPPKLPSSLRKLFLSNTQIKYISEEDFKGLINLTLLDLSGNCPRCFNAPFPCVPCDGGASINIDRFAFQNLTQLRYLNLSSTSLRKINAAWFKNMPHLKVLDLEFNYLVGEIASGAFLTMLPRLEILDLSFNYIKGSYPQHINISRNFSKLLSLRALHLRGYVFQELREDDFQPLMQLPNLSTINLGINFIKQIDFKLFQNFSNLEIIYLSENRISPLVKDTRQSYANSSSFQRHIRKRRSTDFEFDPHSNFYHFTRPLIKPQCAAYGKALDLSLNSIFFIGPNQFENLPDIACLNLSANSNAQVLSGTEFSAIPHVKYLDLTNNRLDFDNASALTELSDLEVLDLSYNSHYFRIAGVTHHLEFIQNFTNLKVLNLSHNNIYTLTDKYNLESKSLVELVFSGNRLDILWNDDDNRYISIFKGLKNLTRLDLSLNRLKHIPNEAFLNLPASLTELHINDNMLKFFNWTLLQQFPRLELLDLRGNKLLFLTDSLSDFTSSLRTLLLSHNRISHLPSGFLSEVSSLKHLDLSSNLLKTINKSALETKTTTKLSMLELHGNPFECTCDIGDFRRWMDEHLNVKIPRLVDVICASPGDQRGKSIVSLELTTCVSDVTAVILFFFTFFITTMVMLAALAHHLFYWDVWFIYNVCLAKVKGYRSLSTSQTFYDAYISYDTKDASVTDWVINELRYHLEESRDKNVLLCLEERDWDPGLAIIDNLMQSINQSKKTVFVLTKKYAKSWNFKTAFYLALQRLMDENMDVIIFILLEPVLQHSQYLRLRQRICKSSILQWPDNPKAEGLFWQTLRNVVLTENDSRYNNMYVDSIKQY
Nature of the assay: TLR8 inhibition reporter assay (HEK-Blue cells, SEAP reporter, R848 stimulation). To be noted: HEK-Blue cells overexpressing human TLR8, SEAP reporter, R848 15.9 μM; read-out: TLR8 IC50. A digest of the protocol:
as §1

Assay [3] concerns the target T3, human TLR7 (Homo sapiens, UniProt Q9NYK1).
T3 construct: host or cells: HEK-Blue cells
T3 sequence (Q9NYK1 27-1049): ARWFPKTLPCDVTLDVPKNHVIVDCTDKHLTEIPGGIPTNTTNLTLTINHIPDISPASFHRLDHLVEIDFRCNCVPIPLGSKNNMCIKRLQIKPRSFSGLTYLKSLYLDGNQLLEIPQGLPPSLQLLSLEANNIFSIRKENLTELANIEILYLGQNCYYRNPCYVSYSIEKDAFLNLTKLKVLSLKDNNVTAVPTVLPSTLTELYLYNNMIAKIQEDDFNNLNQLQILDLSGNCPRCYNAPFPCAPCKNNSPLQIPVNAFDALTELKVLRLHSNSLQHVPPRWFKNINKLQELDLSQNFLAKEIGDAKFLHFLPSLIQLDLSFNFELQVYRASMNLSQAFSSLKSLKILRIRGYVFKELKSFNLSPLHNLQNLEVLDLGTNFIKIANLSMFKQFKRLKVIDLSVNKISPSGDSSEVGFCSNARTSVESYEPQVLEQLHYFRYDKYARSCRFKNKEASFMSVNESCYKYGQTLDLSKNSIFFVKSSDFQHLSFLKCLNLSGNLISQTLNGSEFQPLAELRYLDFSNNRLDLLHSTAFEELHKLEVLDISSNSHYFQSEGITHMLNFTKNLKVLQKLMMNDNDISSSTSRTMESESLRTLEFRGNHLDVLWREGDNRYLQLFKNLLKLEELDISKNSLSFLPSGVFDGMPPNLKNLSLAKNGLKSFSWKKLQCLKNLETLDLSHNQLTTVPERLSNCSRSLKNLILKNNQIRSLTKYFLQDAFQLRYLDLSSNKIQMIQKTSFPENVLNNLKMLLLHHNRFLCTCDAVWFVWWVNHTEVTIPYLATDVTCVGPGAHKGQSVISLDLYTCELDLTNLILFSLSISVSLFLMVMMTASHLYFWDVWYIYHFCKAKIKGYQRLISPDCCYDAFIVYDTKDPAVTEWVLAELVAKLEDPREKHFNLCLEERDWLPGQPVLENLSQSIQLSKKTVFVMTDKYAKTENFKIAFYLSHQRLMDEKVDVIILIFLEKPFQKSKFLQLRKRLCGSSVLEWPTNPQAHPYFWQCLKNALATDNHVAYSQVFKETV
Nature of the assay: TLR7 inhibition reporter assay (HEK-Blue cells, SEAP reporter, gardiquimod stimulation). To be noted: HEK-Blue cells overexpressing human TLR7, SEAP reporter, gardiquimod 7.5 μM; read-out: TLR7 IC50. A digest of the protocol: as §1
A general note: In a reporter assay the amount or activity of a reporter protein is the signal.

In the case of `Cc1cc(-c2[nH]c3sc(C(=O)N4CCC(N(C)C)CC4)nc3c2C(C)C)cn2ncnc12` [Example 395, (4-(dimethylamino)piperidin-1-yl)(6-isopropyl-5-(8-methyl-[1,2,4]triazolo[1,5-a]pyridin-6-yl)-4H-pyrrolo[3,2-d]thiazol-2-yl)methanone], the half-maximal inhibitory concentration (IC50) in assay [1] turned out to be 4500 nM; in assay [2], 6.75 nM; in assay [3], 7.89 nM.
As for `Cc1cc(-c2[nH]c3sc(C(=O)NCCN(C)C)nc3c2C(C)C)cn2ncnc12` [Example 400, N-(2-(dimethylamino)ethyl)-6-isopropyl-5-(8-methyl-[1,2,4]triazolo[1,5-a]pyridin-6-yl)-4H-pyrrolo[3,2-d]thiazole-2-carboxamide], the IC50 in assay [1] was 9250 nM; in assay [2], 15.9 nM; in assay [3] it was 13.5 nM.
The matching figures for `Cc1c(-c2[nH]c3sc(CNC4CCN(C(C)C)CC4)nc3c2C(C)C)cn2ncnc2c1C` [Example 401, N-((5-(7,8-dimethyl-[1,2,4]triazolo[1,5-a]pyridin-6-yl)-6-isopropyl-4H-pyrrolo[3,2-d]thiazol-2-yl)methyl)-1-isopropylpiperidin-4-amine]: 13500 nM, 35.7 nM and 36.9 nM.
For `Cc1c(-c2[nH]c3sc(CNCC4(S(C)(=O)=O)CC4)nc3c2C(C)C)cn2ncnc2c1C` [Example 405, 1-(5-(7,8-dimethyl-[1,2,4]triazolo[1,5-a]pyridin-6-yl)-6-isopropyl-4H-pyrrolo[3,2-d]thiazol-2-yl)-N-((1-(methylsulfonyl)cyclopropyl)methyl)methanamine] the same measures were 37700 nM, 215 nM and 77.5 nM.
For `Cc1c(-c2[nH]c3sc(CN4CC5(CNC5)C4)nc3c2C(C)C)cn2ncnc2c1C` [Example 409, 2-((2,6-diazaspiro[3.3]heptan-2-yl)methyl)-5-(7,8-dimethyl-[1,2,4]triazolo[1,5-a]pyridin-6-yl)-6-isopropyl-4H-pyrrolo[3,2-d]thiazole] the same measures were 9800 nM, 345 nM and 48.2 nM.
With `COc1cc(-c2[nH]c3nc(C4CCNCC4)sc3c2C(C)C)cn2ncnc12` [Example 410, 6-isopropyl-5-(8-methoxy-[1,2, 4]triazolo[1,5-a]pyridin-6-yl)-2-(piperidin-4-yl)-4H-pyrrolo[2,3-d]thiazole], the results for the half-maximal inhibitory concentration (IC50) in assay [1], in assay [2] and in assay [3] were 6800 nM, 560 nM and 130 nM, respectively.
Consider `Cc1cc(-c2[nH]c3nc(C4CCNCC4)sc3c2C(C)C)cn2ncnc12` [Example 411, 6-isopropyl-5-(8-methyl-[1,2,4]triazolo[1,5-a]pyridin-6-yl)-2-(piperidin-4-yl)-4H-pyrrolo[2,3-d]thiazole], for which the results for the 50% inhibitory concentration (IC50) in assay [1], in assay [2] and in assay [3] were 3100 nM, 200 nM and 1.8 nM, respectively.
With `Cc1cc(-c2[nH]c3nc(C4CCN(CC5(C)COC5)CC4)sc3c2C(C)C)cn2ncnc12` [Example 412, 6-isopropyl-5-(8-methyl-[1,2,4]triazolo[1,5-a]pyridin-6-yl)-2-(1-((3-methyloxetan-3-yl)methyl)piperidin-4-yl)-4H-pyrrolo[2,3-d]thiazole], the IC50 in assay [1] amounted to 5000 nM; in assay [2] it was 520 nM; in assay [3] it was 50 nM.
For the compound `COc1cc(-c2[nH]c3cc(C4CCNCC4)sc3c2C(C)C)cn2ncnc12` [Example 413, 6-isopropyl-5-(8-methoxy-[1,2,4]triazolo[1,5-a]pyridin-6-yl)-2-(piperidin-4-yl)-4H-thieno[3,2-b]pyrrole], the half-maximal inhibitory concentration (IC50) in assay [1] was found to be 3100 nM; in assay [2], 9.3 nM; in assay [3], 5.3 nM.
